Species: Rattus norvegicus
Experiment: Open TG-GATES - Regimen: Single
Format: toxicity, organism-based, Sprague-Dawley
Set-up: regimen Single, gender Male, age 6 weeks
Settings: in vivo, po, 0 mg/kg, route gavage, dose level Control; for APTT / Bas / Eos / Fbg / Hb / Ht / Lym / MCH / MCHC / MCV / Mono / Neu / PT / Plat / RBC / Ret / WBC: tissue Blood; for KIDNEY_L / KIDNEY_R / KIDNEY_TOTAL: tissue Kidney; for LIVER: tissue Liver; for A/G / ALP / ALT / AST / BUN / CRE / Ca / Cl / DBIL / GLC / IP / K / LDH / Na / PL / RALB / TBIL / TC / TG / TP / gamma-GTP: tissue Plasma

## CCOC(=O)[C@H](CCc1ccccc1)N[C@@H](C)C(=O)N1CCC[C@H]1C(=O)O
3 h
  TERMINAL_BW: 219.5 g
  APTT: 16.4 s
  Bas: 0%
  Eos: 1%
  Fbg: 205.6 mg/dL
  Hb: 13.1 g/dL
  Ht: 39.6%
  Lym: 78.2%
  MCH: 21.9 pg
  MCHC: 33%
  MCV: 66.3 fL
  Mono: 8.2%
  Neu: 13%
  PT: 12.1 s
  Plat: 115.4 x10_4/uL
  RBC: 596.8 x10_4/ul
  Ret: 9.2%
  WBC: 96.8 x10_2/uL
  KIDNEY_L: 1 g
  KIDNEY_R: 1 g
  KIDNEY_TOTAL: 2 g
  LIVER: 10.5 g
  A/G: 2.2
  ALP: 725.4 IU/L
  ALT: 37.6 IU/L
  AST: 66.2 IU/L
  BUN: 13.8 mg/dL
  CRE: 0.5 mg/dL
  Ca: 11 mg/dL
  Cl: 105.4 meq/L
  DBIL: 0.008 mg/dL
  GLC: 196.6 mg/dL
  IP: 10.2 mg/dL
  K: 4.8 meq/L
  LDH: 79.2 IU/L
  Na: 140.2 meq/L
  PL: 146 mg/dL
  RALB: 3.7 g/dL
  TBIL: 0.3 mg/dL
  TC: 77 mg/dL
  TG: 70.8 mg/dL
  TP: 5.3 g/dL
  gamma-GTP: 1.4 IU/L
6 h
  TERMINAL_BW: 212.8 g
  APTT: 16.4 s
  Bas: 0%
  Eos: 1%
  Fbg: 205.2 mg/dL
  Hb: 13.2 g/dL
  Ht: 39.9%
  Lym: 76.2%
  MCH: 21.6 pg
  MCHC: 33%
  MCV: 65.4 fL
  Mono: 6.4%
  Neu: 16.6%
  PT: 12.2 s
  Plat: 116.2 x10_4/uL
  RBC: 609.4 x10_4/ul
  Ret: 8.4%
  WBC: 118.4 x10_2/uL
  KIDNEY_L: 0.9 g
  KIDNEY_R: 0.9 g
  KIDNEY_TOTAL: 1.9 g
  LIVER: 9.5 g
  A/G: 2.2
  ALP: 837.6 IU/L
  ALT: 34.6 IU/L
  AST: 65.6 IU/L
  BUN: 9.8 mg/dL
  CRE: 0.5 mg/dL
  Ca: 10.8 mg/dL
  Cl: 105.2 meq/L
  DBIL: 0.022 mg/dL
  GLC: 198.6 mg/dL
  IP: 9.9 mg/dL
  K: 4.7 meq/L
  LDH: 74 IU/L
  Na: 139.4 meq/L
  PL: 130.6 mg/dL
  RALB: 3.7 g/dL
  TBIL: 0.4 mg/dL
  TC: 73 mg/dL
  TG: 46.8 mg/dL
  TP: 5.4 g/dL
  gamma-GTP: 1.6 IU/L
9 h
  TERMINAL_BW: 215 g
  APTT: 16.5 s
  Bas: 0%
  Eos: 1.2%
  Fbg: 215.4 mg/dL
  Hb: 13 g/dL
  Ht: 39.6%
  Lym: 81.4%
  MCH: 21.9 pg
  MCHC: 32.8%
  MCV: 66.8 fL
  Mono: 5%
  Neu: 12.8%
  PT: 11.7 s
  Plat: 112.2 x10_4/uL
  RBC: 593.2 x10_4/ul
  Ret: 8.7%
  WBC: 113.3 x10_2/uL
  KIDNEY_L: 1 g
  KIDNEY_R: 1 g
  KIDNEY_TOTAL: 1.9 g
  LIVER: 9.4 g
  A/G: 2.1
  ALP: 772.2 IU/L
  ALT: 31.2 IU/L
  AST: 60.8 IU/L
  BUN: 13.6 mg/dL
  CRE: 0.4 mg/dL
  Ca: 10.7 mg/dL
  Cl: 106.6 meq/L
  DBIL: 0.022 mg/dL
  GLC: 192.6 mg/dL
  IP: 10.1 mg/dL
  K: 4.8 meq/L
  LDH: 69.8 IU/L
  Na: 139 meq/L
  PL: 133.4 mg/dL
  RALB: 3.8 g/dL
  TBIL: 0.4 mg/dL
  TC: 69.6 mg/dL
  TG: 49.2 mg/dL
  TP: 5.5 g/dL
  gamma-GTP: 1.6 IU/L
24 h
  TERMINAL_BW: 230.9 g
  APTT: 16.3 s
  Bas: 0%
  Eos: 1.4%
  Fbg: 203.8 mg/dL
  Hb: 13.2 g/dL
  Ht: 39.8%
  Lym: 71.6%
  MCH: 21.6 pg
  MCHC: 33.1%
  MCV: 65.3 fL
  Mono: 8.2%
  Neu: 19%
  PT: 11.2 s
  Plat: 117.1 x10_4/uL
  RBC: 609.4 x10_4/ul
  Ret: 8.3%
  WBC: 114 x10_2/uL
  KIDNEY_L: 1.1 g
  KIDNEY_R: 1 g
  KIDNEY_TOTAL: 2.1 g
  LIVER: 11 g
  A/G: 2.4
  ALP: 834.2 IU/L
  ALT: 39.8 IU/L
  AST: 62.6 IU/L
  BUN: 18 mg/dL
  CRE: 0.5 mg/dL
  Ca: 10.9 mg/dL
  Cl: 106.4 meq/L
  DBIL: 0.012 mg/dL
  GLC: 198.8 mg/dL
  IP: 8.5 mg/dL
  K: 5.2 meq/L
  LDH: 86.4 IU/L
  Na: 141 meq/L
  PL: 155 mg/dL
  RALB: 3.9 g/dL
  TBIL: 0.4 mg/dL
  TC: 80 mg/dL
  TG: 84.6 mg/dL
  TP: 5.5 g/dL
  gamma-GTP: 1.2 IU/L

From ChEMBL document CHEMBL3885861, “Open TG-GATES”
